Test results reported in ChEMBL document CHEMBL3739317, “Design of new phenothiazine-thiadiazole hybrids via molecular hybridization approach for the development of potent antitubercular agents” (Eur J Med Chem, 2015).
Converted amounts (≈) assume the structure as drawn. The source made the active and inactive calls. No cut-off for these calls is given here.

How the values were obtained:
Pseudomonas aeruginosa [1] = experiment: Antibacterial activity against Pseudomonas aeruginosa at 75 ug/ml after 18 to 24 hrs by disc diffusion method; type: functional; conditions: read-out: IZ
Escherichia coli [2] = experiment: Antibacterial activity against Escherichia coli at 75 ug/ml after 18 to 24 hrs by disc diffusion method; type: functional; conditions: read-out: IZ
Staphylococcus aureus [3] = experiment: Antibacterial activity against Staphylococcus aureus at 50 ug/ml after 18 to 24 hrs by disc diffusion method; type: functional; conditions: for zone of inhibition at 50 µg/mL: read-out: IZ
Escherichia coli [4] = experiment: Antibacterial activity against Escherichia coli at 50 ug/ml after 18 to 24 hrs by disc diffusion method; type: functional; conditions: read-out: IZ
Staphylococcus aureus [5] = experiment: Antibacterial activity against Staphylococcus aureus at 75 ug/ml after 18 to 24 hrs by disc diffusion method; type: functional; conditions: for zone of inhibition at 75 µg/mL: read-out: IZ
[6] = tested on: Mycobacterium tuberculosis; experiment: Antimycobacterial activity against Mycobacterium tuberculosis H37Rv ATCC 27294 after 5 days by microplate alamar blue assay; type: functional; conditions: H37Rv ATCC 27294, 120 h
Pseudomonas aeruginosa [7] = experiment: Antibacterial activity against Pseudomonas aeruginosa at 50 ug/ml after 18 to 24 hrs by disc diffusion method; type: functional; conditions: read-out: IZ
Vero = experiment: Cytotoxicity against African green monkey Vero cells after 72 hrs by MTT assay; type: cell-based; conditions: Chlorocebus sabaeus
[8] = Selectivity index, ratio of IC50 for African green monkey Vero cells to MIC for Mycobacterium tuberculosis H37Rv ATCC 27294; type: toxicity, cell-based

Cc1ccc(-c2nn(CC(=O)N3c4ccccc4Sc4ccc(Cl)cc43)c(=N)s2)cc1
zone of inhibition at 75 µg/mL (Pseudomonas aeruginosa [1]): 7 mm | zone of inhibition at 75 µg/mL (Escherichia coli [2]): 9 mm | zone of inhibition at 50 µg/mL (Staphylococcus aureus [3]): 10 mm | zone of inhibition at 50 µg/mL (Escherichia coli [4]): 7 mm | zone of inhibition at 75 µg/mL (Staphylococcus aureus [5]): 12 mm | MIC [6]: 50 µg/mL (≈ 108 µM) | zone of inhibition at 50 µg/mL (Pseudomonas aeruginosa [7]): 4 mm

N=c1sc(-c2ccc(Cl)cc2)nn1CC(=O)N1c2ccccc2Sc2ccccc21
zone of inhibition at 75 µg/mL (Pseudomonas aeruginosa [1]): 10 mm | zone of inhibition at 75 µg/mL (Escherichia coli [2]): 10 mm | zone of inhibition at 50 µg/mL (Staphylococcus aureus [3]): 7 mm | zone of inhibition at 50 µg/mL (Escherichia coli [4]): 8 mm | zone of inhibition at 75 µg/mL (Staphylococcus aureus [5]): 9 mm | MIC [6]: 50 µg/mL (≈ 111 µM) | zone of inhibition at 50 µg/mL (Pseudomonas aeruginosa [7]): 7 mm

N=c1sc(-c2ccc(F)cc2)nn1CC(=O)N1c2ccccc2Sc2ccccc21
zone of inhibition at 75 µg/mL (Pseudomonas aeruginosa [1]): 12 mm | zone of inhibition at 75 µg/mL (Escherichia coli [2]): 11 mm | zone of inhibition at 50 µg/mL (Staphylococcus aureus [3]): 5 mm | zone of inhibition at 50 µg/mL (Escherichia coli [4]): 8 mm | IC50 (Vero): 247 µg/mL (≈ 568 µM) | selectivity ratio [8]: 79.1 | zone of inhibition at 75 µg/mL (Staphylococcus aureus [5]): 8 mm | MIC [6]: 3.12 µg/mL (≈ 7.19 µM) | zone of inhibition at 50 µg/mL (Pseudomonas aeruginosa [7]): 8 mm

NNC(=O)c1ccncc1 [ISONIAZID]
MIC [6]: 0.1 µg/mL (≈ 0.729 µM)

CCCc1nn(CC(=O)N2c3ccccc3Sc3ccc(Cl)cc32)c(=N)s1
zone of inhibition at 75 µg/mL (Pseudomonas aeruginosa [1]): 12 mm | zone of inhibition at 75 µg/mL (Escherichia coli [2]): 12 mm | zone of inhibition at 50 µg/mL (Staphylococcus aureus [3]): 8 mm | zone of inhibition at 50 µg/mL (Escherichia coli [4]): 8 mm | IC50 (Vero): 245 µg/mL (≈ 588 µM) | selectivity ratio [8]: 306 | zone of inhibition at 75 µg/mL (Staphylococcus aureus [5]): 10 mm | MIC [6]: 0.8 µg/mL (≈ 1.92 µM) | zone of inhibition at 50 µg/mL (Pseudomonas aeruginosa [7]): 10 mm

N=c1sc(-c2cccs2)nn1CC(=O)N1c2ccccc2Sc2ccc(C(F)(F)F)cc21
zone of inhibition at 75 µg/mL (Pseudomonas aeruginosa [1]): 12 mm | zone of inhibition at 75 µg/mL (Escherichia coli [2]): 10 mm | zone of inhibition at 50 µg/mL (Staphylococcus aureus [3]): 5 mm | zone of inhibition at 50 µg/mL (Escherichia coli [4]): 8 mm | zone of inhibition at 75 µg/mL (Staphylococcus aureus [5]): 8 mm | MIC [6]: 50 µg/mL (≈ 102 µM) | zone of inhibition at 50 µg/mL (Pseudomonas aeruginosa [7]): 8 mm

N=c1sc(-c2ccc(F)cc2)nn1CC(=O)N1c2ccccc2Sc2ccc(C(F)(F)F)cc21
zone of inhibition at 75 µg/mL (Pseudomonas aeruginosa [1]): 13 mm | zone of inhibition at 75 µg/mL (Escherichia coli [2]): 11 mm | zone of inhibition at 50 µg/mL (Staphylococcus aureus [3]): 7 mm | zone of inhibition at 50 µg/mL (Escherichia coli [4]): 9 mm | IC50 (Vero): 733 µg/mL (≈ 1460 µM) | selectivity ratio [8]: 458 | zone of inhibition at 75 µg/mL (Staphylococcus aureus [5]): 10 mm | MIC [6]: 1.6 µg/mL (≈ 3.18 µM) | zone of inhibition at 50 µg/mL (Pseudomonas aeruginosa [7]): 7 mm

Cc1ccc(-c2nn(CC(=O)N3c4ccccc4Sc4ccccc43)c(=N)s2)cc1
zone of inhibition at 75 µg/mL (Pseudomonas aeruginosa [1]): 11 mm | zone of inhibition at 75 µg/mL (Escherichia coli [2]): 27 mm | zone of inhibition at 50 µg/mL (Staphylococcus aureus [3]): 16 mm | zone of inhibition at 50 µg/mL (Escherichia coli [4]): 24 mm | IC50 (Vero): 215 µg/mL (≈ 499 µM) | selectivity ratio [8]: 269 | zone of inhibition at 75 µg/mL (Staphylococcus aureus [5]): 21 mm | MIC [6]: 0.8 µg/mL (≈ 1.86 µM) | zone of inhibition at 50 µg/mL (Pseudomonas aeruginosa [7]): 9 mm

COc1ccc(-c2nn(CC(=O)N3c4ccccc4Sc4ccc(C(F)(F)F)cc43)c(=N)s2)cc1OC
zone of inhibition at 75 µg/mL (Pseudomonas aeruginosa [1]): 9 mm | zone of inhibition at 75 µg/mL (Escherichia coli [2]): 10 mm | zone of inhibition at 50 µg/mL (Staphylococcus aureus [3]): 4 mm | zone of inhibition at 50 µg/mL (Escherichia coli [4]): 8 mm | zone of inhibition at 75 µg/mL (Staphylococcus aureus [5]): 7 mm | MIC [6]: 50 µg/mL (≈ 91.8 µM) | zone of inhibition at 50 µg/mL (Pseudomonas aeruginosa [7]): 6 mm

N=c1sc(-c2ccc(Cl)cc2)nn1CC(=O)N1c2ccccc2Sc2ccc(C(F)(F)F)cc21
zone of inhibition at 75 µg/mL (Pseudomonas aeruginosa [1]): 14 mm | zone of inhibition at 75 µg/mL (Escherichia coli [2]): 12 mm | zone of inhibition at 50 µg/mL (Staphylococcus aureus [3]): 11 mm | zone of inhibition at 50 µg/mL (Escherichia coli [4]): 11 mm | zone of inhibition at 75 µg/mL (Staphylococcus aureus [5]): 13 mm | MIC [6]: 25 µg/mL (≈ 48.2 µM) | zone of inhibition at 50 µg/mL (Pseudomonas aeruginosa [7]): 9 mm

Cc1nn(CC(=O)N2c3ccccc3Sc3ccccc32)c(=N)s1
zone of inhibition at 75 µg/mL (Pseudomonas aeruginosa [1]): 25 mm | zone of inhibition at 75 µg/mL (Escherichia coli [2]): 25 mm | zone of inhibition at 50 µg/mL (Staphylococcus aureus [3]): 22 mm | zone of inhibition at 50 µg/mL (Escherichia coli [4]): 20 mm | IC50 (Vero): 433 µg/mL (≈ 1220 µM) | selectivity ratio [8]: 271 | zone of inhibition at 75 µg/mL (Staphylococcus aureus [5]): 26 mm | MIC [6]: 1.6 µg/mL (≈ 4.51 µM) | zone of inhibition at 50 µg/mL (Pseudomonas aeruginosa [7]): 20 mm

N=c1sc(-c2cccs2)nn1CC(=O)N1c2ccccc2Sc2ccccc21
zone of inhibition at 75 µg/mL (Pseudomonas aeruginosa [1]): 4 mm | zone of inhibition at 75 µg/mL (Escherichia coli [2]): 7 mm | inhibition zone (IZ) (Staphylococcus aureus [3]): inactive | zone of inhibition at 50 µg/mL (Escherichia coli [4]): 6 mm | inhibition zone (IZ) (Staphylococcus aureus [5]): inactive | MIC [6]: 50 µg/mL (≈ 118 µM) | zone of inhibition at 50 µg/mL (Pseudomonas aeruginosa [7]): 2 mm
